Measured values taken from patent US7153858B2, “Arylpiperazinyl compounds” (Epix Delaware, Inc., priority 2003, dated 2006).
“Also recorded” adds a separate entry of the source. Where a name gives a salt, the structure may show the parent alone.

What was measured:
Assay type in all cases: in vivo
129 svev mice [1] = test: Open Field (OF), general motor activity; conditions: 40 min session
Source text: (§1) Young adult male C57B16/J mice from Jackson Laboratory, Bar Harbor, Me. were used in the Elevated Plus Maze; 129 svev mice from Taconic, Germantown, N.Y. were used in the Stress-induced Hyperthermia, Open Field, and the Tail Suspension tests, and DBA/2J mice from Jackson Laboratory, Bar Harbor, Me. were used in the Forced Swim test. All mice were received at the age of 6 weeks and were assigned unique identification numbers. Animals were housed 4 per cage in polycarbonate cages with filter tops, cagemate identification maintained by tail marks. Animals were acclimated for 7 days and given food and water ad libitum. Mice were examined prior to initiation of the study at 8 weeks of age to assure adequate health and suitability. During the course of the study, 12-hour light/12-hour dark cycles were maintained with the light on at 7:00 a.m. The room temperature was maintained between 20 and 23° C. with a relative humidity maintained between 30% and 70%. Chow and water were provided ad libitum.
(§2) In each test, animals were randomly assigned across treatment groups and balanced by cage number. Ten animals were used in each treatment group. Mice for the Open Field and Stress-induced hyperthermia studies were handled once daily for 2 consecutive days prior to the testing. Mice assigned to the Elevated plus maze experiment were not handled to increase the stress level at the time of the testing.
(§3) All compounds were dissolved in sterile injectable water, which served as the vehicle control. All solutions were prepared on the day of the experiments. […] In all tests except for the tail suspension (TS) test, drugs were administered acutely; in the TS test, Compound A was administered once daily for 3 days (test day inclusive) prior to testing. Thirty minutes pretreatment time was used in all tests except for SIH in which case compounds were given to the animals one hr before the test.
The open field activity monitor system (Med Associates, Inc.) measured general motor activity. The test was performed under normal lighting conditions (400 lux). Mice were brought into the experimental room and allowed at least 1 hr of acclimation. Thirty min after treatment, each mouse was placed into the testing enclosure (l×w×h: 27 cm×27 cm×20 cm) with an infrared beam array that automatically monitors the animal's activity. Eight animals of balanced treatment were tested at one time. The test session lasted 40 min and animals were returned to the home cages at the end of the session. The critical measures of this test includes locomotion (total distance traveled), rearing (vertical activity), number of center entries and percent time spent in the center area of the OF arena.
(§4) All data were analyzed by comparing the groups treated with the test substance to the vehicle control or reference treated groups. Statistical analysis was performed by ANOVA followed by Fisher's post-hoc test where appropriate. […] Data are represented as the means and standard error to the mean (s.e.m).

129 svev mice [2] = test: Stress-Induced Hyperthermia (SIH); conditions: 1 hr before test
Source text: as §1, §2, §3
Mice have a natural hyperthermic response to stress, which has been proposed as a measure of stress-induced anxiety (Olivier, Zethof, Ronken & van der Heyden, European Journal of Pharmacology 342(2–3): 177–82, 1998). Anxiolytics are known to decrease this hyperthermic response to stress. This test involves two measures of rectal temperature repeated in the same animal within a 10 min period. On the day prior to testing, animals were brought to the experimental room 1 hr prior to scheduled lights out and singly housed overnight with food and water ad libitum. On the morning of the experiment, animals were first injected with treatment compound or vehicle. One hr post treatment, the animal was removed from the holding cage and held in a supine position and had rectal temperature measured by using a rectal probe attached to a PhysiTemp thermometer (Fisher Scientific). For each animal tested, the rectal probe was cleaned with an alcohol pad and lubricated with sterile K-Y jelly and slowly inserted into the animal's rectum at a length of approximately 3–5 mm. The probe remained within the animal's rectum for approximately 5 sec or until body temperature reached stability, and the baseline rectal temperature (T1) was recorded. The animal was immediately placed back to the holding cage and after a 10-min interval a second rectal temperature (T2) was taken using the same procedure as T1. The animal was then returned to the home cage and at the completion of the experiment returned to the colony room.
as §4

C57B16/J mice = test: Elevated Plus Maze (EPM); conditions: for Closed Arm Entries / Total Entries / Open Arm Time / Proportion Open Arm Entries: vs vehicle
Source text: as §1, §2, §3
The elevated plus maze is a test commonly used to assess anxiety in rodents. The maze consists of two closed arms (l×w×h: 15 cm×6 cm×30 cm) and two open arms (6 cm w×30 cm l) forming a cross, with a square center platform (6×6 cm). Rodents naturally fear open spaces and tend to spend more time in the closed arms. Anxiolytics will attenuate this fear of open spaces and will increase the number of time spent in open arms. All visible surfaces are made of a black acrylic. Each arm of the maze is placed on a support column 50 cm above the floor. The light intensity was ˜100 lux above the open arms and ˜70 lux above the closed arms. Animals were brought to the experimental room at least 1 hr before the test in the home cage (food and water available). Mice were placed in the center of the elevated plus maze facing an open arm, tested once, one at a time for a 5 min test. The time in the open/closed arms and the number of entries in the open/closed arms were recorded via video camera and used as a measure of anxiety. Mice were returned to the home cage after testing and then to the colony room.
as §4

Coloboma mice = test: Open Field, hyperlocomotor activity of Coloboma mutant mice (ADHD model); conditions: vs vehicle
Source text: The mice used in the current study are the offspring of breeding pairs (C3H/HeSnj-Cm) originally purchased from Jackson Laboratory, Bar Harbor, Me. Of the 48 mice tested, 22 were male and 26 were female, at age between 12–20 weeks old. These animals were weaned at 21 days age and were housed in 2 to 4 littermates per cage in our animal facility where standard animal husbandry was maintained. The colony room was kept under 12-hour light/12-hour dark cycles with the lights on at 7:00 a.m. Temperature was maintained between 20 and 23° C. with a relative humidity maintained between 30% and 70%. Animals received food chow and water provided ad libitum.
All compounds were dissolved in sterile injectable water, which served as the vehicle control. All solutions were prepared on the day of the experiments. Compound A as well as its vehicle (water) was given to animals orally (PO) in a volume of 10 ml/kg body weight; the reference compound was given to animals intraperitoneally (IP). […]
The study was conducted over two consecutive days with animals tested between 10:00 a.m. and 5:00 p.m. on each day. […] The results were recorded automatically and processed by microcomputer.
The open field activity monitor system (Med Associates, Inc.) measured general motor activity. […]
All data were analyzed by comparing the groups treated with the test substance to the vehicle control or reference treated groups. […]

[3] = tested on: 129 svev mice (tail suspension), DBA/2J mice (forced swim); test: Tail suspension and forced swim test; conditions: PO; tail suspension: once daily for 3 days
Source text: as §1
All compounds were dissolved in sterile injectable water, which served as the vehicle control. All solutions were prepared on the day of the experiments. […] In all tests except for the tail suspension (TS) test, drugs were administered acutely; in the TS test, Compound A was administered once daily for 3 days (test day inclusive) prior to testing. […]

[4] = reference buspirone 20 mg/kg IP
[5] = reference buspirone 20 mg/kg IP, listed as buspirone
[6] = reference buspirone 3, 10 and 20 mg/kg PO

Structure (SMILES): O=C1CC2(CCCC2)CC(=O)N1CCCCN1CCN(c2ncccn2)CC1 [Buspirone, reference compound]
- Frequency of Zone Crosses (129 svev mice [1]; reference buspirone PO): no change
- Percent Distance in Center (129 svev mice [1]; reference buspirone PO): no change
- Percent Time in Center (129 svev mice [1]; reference buspirone PO): no change
- Total Distance (Horizontal) (129 svev mice [1]; reference buspirone PO): no change
- Vertical Activity (Rearing) (129 svev mice [1]; reference buspirone PO): decreased the number of rears; also recorded: decrease
- Basal Rectal Temperature (129 svev mice [2]; [4]): decrease
- Temperature Change (stress-induced hyperthermia) (129 svev mice [2]; [4]): decrease
- Basal Rectal Temperature (129 svev mice [2]; [5]): significantly decreased
- Temperature Change (stress-induced hyperthermia) (129 svev mice [2]; [5]): significantly decreased
- Closed Arm Entries (C57B16/J mice; 20 mg/kg PO): significantly decreased
- Total Entries (C57B16/J mice; 20 mg/kg PO): significant decrease
- Closed Arm Entries (C57B16/J mice; 20 mg/kg PO, listed as BUS): decrease (BUS, 20)
- Total Entries (C57B16/J mice; 20 mg/kg PO, listed as BUS): decrease (BUS, 20)
- anxiolytic-like effect in the EPM (C57B16/J mice; [6]): failed to produce a significant anxiolytic-like effect
- Open Arm Time (C57B16/J mice; [6]): no effect

Structure (SMILES): CC(=O)Nc1cccc(N2CCN(CCCCNS(=O)(=O)CC3CCCCC3)CC2)c1 [Compound A, N-{3-[4-(4-Cyclohexylmethanesulfonylamino-butyl)-piperazin-1-yl]-phenyl}-acetamide HCl]
- Frequency of Zone Crosses (129 svev mice [1]; 1 mg/kg PO): No change
- Percent Distance in Center (129 svev mice [1]; 1 mg/kg PO): No change
- Percent Time in Center (129 svev mice [1]; 1 mg/kg PO): No change
- Total Distance (Horizontal) (129 svev mice [1]; 1 mg/kg PO): No change
- Vertical Activity (Rearing) (129 svev mice [1]; 1 mg/kg PO): No change
- Frequency of Zone Crosses (129 svev mice [1]; 3 mg/kg PO): no change
- Percent Distance in Center (129 svev mice [1]; 3 mg/kg PO): no change
- Percent Time in Center (129 svev mice [1]; 3 mg/kg PO): no change
- Total Distance (Horizontal) (129 svev mice [1]; 3 mg/kg PO): no change
- Vertical Activity (Rearing) (129 svev mice [1]; 3 mg/kg PO): no change
- Frequency of Zone Crosses (129 svev mice [1]; 20 mg/kg PO): no change
- Percent Distance in Center (129 svev mice [1]; 20 mg/kg PO): no change
- Percent Time in Center (129 svev mice [1]; 20 mg/kg PO): no change
- Total Distance (Horizontal) (129 svev mice [1]; 20 mg/kg PO): no change
- Vertical Activity (Rearing) (129 svev mice [1]; 20 mg/kg PO): no change
- hyperlocomotor activity (Distance Traveled) (Coloboma mice; doses of 1 and 20 mg/kg PO, 30 min pretreatment): decreased the hyperlocomotor activity
- Basal Rectal Temperature (129 svev mice [2]; 1 mg/kg PO, HCl): did not show significant effects; also recorded: no change
- Temperature Change (stress-induced hyperthermia) (129 svev mice [2]; 1 mg/kg PO, HCl): did not show significant effects; also recorded: no change
- Basal Rectal Temperature (129 svev mice [2]; 3 mg/kg PO, HCl): did not show significant effects; also recorded: no change
- Temperature Change (stress-induced hyperthermia) (129 svev mice [2]; 3 mg/kg PO, HCl): did not show significant effects; also recorded: no change
- Basal Rectal Temperature (129 svev mice [2]; 20 mg/kg PO, HCl): significant decrease
- Temperature Change (stress-induced hyperthermia) (129 svev mice [2]; 20 mg/kg PO, HCl): significant decrease
- Closed Arm Entries (C57B16/J mice; 3 mg/kg PO): no change
- Total Entries (C57B16/J mice; 3 mg/kg PO): no change
- Open Arm Time (C57B16/J mice; 3 mg/kg PO, HCl): significant anxiolytic-like effect; also recorded: increase
- Proportion Open Arm Entries (C57B16/J mice; 3 mg/kg PO, HCl): significant anxiolytic-like effect; also recorded: increase
- Closed Arm Entries (C57B16/J mice; 10 mg/kg PO): no change
- Total Entries (C57B16/J mice; 10 mg/kg PO): no change
- Open Arm Time (C57B16/J mice; 10 mg/kg PO, HCl): did not reach statistical significance; also recorded: no change
- Proportion Open Arm Entries (C57B16/J mice; 10 mg/kg PO, HCl): did not reach statistical significance; also recorded: no change
- Closed Arm Entries (C57B16/J mice; 20 mg/kg PO): no change
- Total Entries (C57B16/J mice; 20 mg/kg PO): no change
- Open Arm Time (C57B16/J mice; 20 mg/kg PO, HCl): did not reach statistical significance; also recorded: no change
- Proportion Open Arm Entries (C57B16/J mice; 20 mg/kg PO, HCl): did not reach statistical significance; also recorded: no change
- antidepressive properties [3]: did not appear to have antidepressive properties

Structure (SMILES): C[C@H](N)Cc1ccccc1 [d-Amphetamine, reference compound]
- locomotor activity (Distance Traveled) (Coloboma mice; 4 mg/kg IP, 15 min before the test): significantly decreased
